Experimental data: PubChem BioAssay (NCI)
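Cells were grown in 96-well plates and exposed to each compound for 48 hours at five concentrations; endpoints were interpolated linearly between bracketing concentrations, or set to the highest concentration if not reached. TGI is the concentration that stops growth completely.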

Key:
Assay in all cases: growth of human tumour cells (NCI), 48 h
SF-539 CNS = system: SF-539 CNS
COLO 205 colon = system: COLO 205 colon
PC-3 prostate = system: PC-3 prostate
M14 melanoma = system: M14 melanoma
SK-OV-3 ovarian = system: SK-OV-3 ovarian
SK-MEL-2 melanoma = system: SK-MEL-2 melanoma
TK-10 renal = system: TK-10 renal
NCI-H522 lung = system: NCI-H522 lung
NCI-H226 lung = system: NCI-H226 lung
CAKI-1 renal = system: CAKI-1 renal
IGROV1 ovarian = system: IGROV1 ovarian
HL-60(TB) leukemia = system: HL-60(TB) leukemia
UACC-62 melanoma = system: UACC-62 melanoma
OVCAR-4 ovarian = system: OVCAR-4 ovarian
SNB-19 CNS = system: SNB-19 CNS
SNB-75 CNS = system: SNB-75 CNS
NCI-H23 lung = system: NCI-H23 lung
SF-295 CNS = system: SF-295 CNS
KM12 colon = system: KM12 colon
HS 578T breast = system: HS 578T breast
EKVX NSCLC = system: EKVX NSCLC
OVCAR-3 ovarian = system: OVCAR-3 ovarian
ACHN renal = system: ACHN renal
RPMI-8226 leukemia = system: RPMI-8226 leukemia
SF-268 CNS = system: SF-268 CNS
DU-145 prostate = system: DU-145 prostate
MDA-MB-231 breast = system: MDA-MB-231 breast
NCI-H460 lung = system: NCI-H460 lung
SK-MEL-28 melanoma = system: SK-MEL-28 melanoma
T-47D breast = system: T-47D breast
SN12C renal = system: SN12C renal
HOP-62 NSCLC = system: HOP-62 NSCLC
SW-620 colon = system: SW-620 colon
MOLT-4 leukemia = system: MOLT-4 leukemia
NCI/ADR-RES ovarian = system: NCI/ADR-RES ovarian
UACC-257 melanoma = system: UACC-257 melanoma
CCRF-CEM leukemia = system: CCRF-CEM leukemia
MALME-3M melanoma = system: MALME-3M melanoma
HCC-2998 colon = system: HCC-2998 colon
OVCAR-8 ovarian = system: OVCAR-8 ovarian
K-562 leukemia = system: K-562 leukemia
HCT-15 colon = system: HCT-15 colon
SK-MEL-5 melanoma = system: SK-MEL-5 melanoma
MDA-MB-435 = system: MDA-MB-435
MCF7 breast = system: MCF7 breast
786-0 renal = system: 786-0 renal
SR leukemia = system: SR leukemia
A549 NSCLC = system: A549 NSCLC
RXF 393 renal = system: RXF 393 renal
HOP-92 NSCLC = system: HOP-92 NSCLC
OVCAR-5 ovarian = system: OVCAR-5 ovarian
U251 CNS = system: U251 CNS
MDA-N = system: MDA-N
HT29 colon = system: HT29 colon
BT-549 breast = system: BT-549 breast
HCT-116 colon = system: HCT-116 colon
UO-31 renal = system: UO-31 renal

SMILES: Cc1c2ccccc2cc2nc3ccccc3n12
- TGI (SF-539 CNS): > 10 µM
- TGI (COLO 205 colon): > 10 µM
- TGI (PC-3 prostate): > 10 µM
- TGI (M14 melanoma): > 10 µM
- TGI (SK-OV-3 ovarian): > 10 µM
- TGI (SK-MEL-2 melanoma): > 10 µM
- TGI (TK-10 renal): > 10 µM
- TGI (NCI-H522 lung): > 10 µM
- TGI (NCI-H226 lung): > 10 µM
- TGI (CAKI-1 renal): > 10 µM
- TGI (IGROV1 ovarian): > 10 µM
- TGI (HL-60(TB) leukemia): > 10 µM
- TGI (UACC-62 melanoma): > 10 µM
- TGI (OVCAR-4 ovarian): > 10 µM
- TGI (SNB-19 CNS): > 10 µM
- TGI (SNB-75 CNS): > 10 µM
- TGI (NCI-H23 lung): > 10 µM
- TGI (SF-295 CNS): > 10 µM
- TGI (KM12 colon): > 10 µM
- TGI (HS 578T breast): > 10 µM
- TGI (EKVX NSCLC): > 10 µM
- TGI (OVCAR-3 ovarian): > 10 µM
- TGI (ACHN renal): > 10 µM
- TGI (RPMI-8226 leukemia): > 10 µM
- TGI (SF-268 CNS): > 10 µM
- TGI (DU-145 prostate): > 10 µM
- TGI (MDA-MB-231 breast): > 10 µM
- TGI (NCI-H460 lung): > 10 µM
- TGI (SK-MEL-28 melanoma): > 10 µM
- TGI (T-47D breast): > 10 µM
- TGI (SN12C renal): > 10 µM
- TGI (HOP-62 NSCLC): > 10 µM
- TGI (SW-620 colon): > 10 µM
- TGI (MOLT-4 leukemia): > 10 µM
- TGI (NCI/ADR-RES ovarian): > 10 µM
- TGI (UACC-257 melanoma): > 10 µM
- TGI (CCRF-CEM leukemia): > 10 µM
- TGI (MALME-3M melanoma): > 10 µM
- TGI (HCC-2998 colon): > 10 µM
- TGI (OVCAR-8 ovarian): > 10 µM
- TGI (K-562 leukemia): > 10 µM
- TGI (HCT-15 colon): > 10 µM
- TGI (SK-MEL-5 melanoma): > 10 µM
- TGI (MDA-MB-435): > 10 µM
- TGI (MCF7 breast): > 10 µM
- TGI (786-0 renal): > 10 µM
- TGI (SR leukemia): > 10 µM
- TGI (A549 NSCLC): > 10 µM
- TGI (RXF 393 renal): > 10 µM
- TGI (HOP-92 NSCLC): > 10 µM
- TGI (OVCAR-5 ovarian): > 10 µM
- TGI (U251 CNS): > 10 µM
- TGI (MDA-N): > 10 µM
- TGI (HT29 colon): > 10 µM
- TGI (BT-549 breast): > 10 µM
- TGI (HCT-116 colon): > 10 µM

SMILES: O=C(O)c1cc2ccccc2c(N=Nc2ccc(S(=O)(=O)O)cc2)c1O
- TGI (SF-539 CNS): > 100 µM
- TGI (COLO 205 colon): > 100 µM
- TGI (PC-3 prostate): > 100 µM
- TGI (M14 melanoma): > 100 µM
- TGI (SK-OV-3 ovarian): > 100 µM
- TGI (SK-MEL-2 melanoma): > 100 µM
- TGI (TK-10 renal): > 100 µM
- TGI (NCI-H522 lung): > 100 µM
- TGI (NCI-H226 lung): > 100 µM
- TGI (CAKI-1 renal): > 100 µM
- TGI (IGROV1 ovarian): > 100 µM
- TGI (HL-60(TB) leukemia): > 100 µM
- TGI (UACC-62 melanoma): > 100 µM
- TGI (OVCAR-4 ovarian): > 100 µM
- TGI (SNB-19 CNS): > 100 µM
- TGI (SNB-75 CNS): > 100 µM
- TGI (SF-295 CNS): > 100 µM
- TGI (KM12 colon): > 100 µM
- TGI (HS 578T breast): > 100 µM
- TGI (EKVX NSCLC): > 100 µM
- TGI (OVCAR-3 ovarian): > 100 µM
- TGI (ACHN renal): > 100 µM
- TGI (RPMI-8226 leukemia): > 100 µM
- TGI (SF-268 CNS): > 100 µM
- TGI (DU-145 prostate): > 100 µM
- TGI (MDA-MB-231 breast): > 100 µM
- TGI (NCI-H460 lung): > 100 µM
- TGI (SK-MEL-28 melanoma): > 100 µM
- TGI (T-47D breast): > 100 µM
- TGI (SN12C renal): > 100 µM
- TGI (HOP-62 NSCLC): > 100 µM
- TGI (SW-620 colon): > 100 µM
- TGI (MOLT-4 leukemia): > 100 µM
- TGI (NCI/ADR-RES ovarian): > 100 µM
- TGI (UACC-257 melanoma): > 100 µM
- TGI (CCRF-CEM leukemia): > 100 µM
- TGI (MALME-3M melanoma): > 100 µM
- TGI (HCC-2998 colon): > 100 µM
- TGI (OVCAR-8 ovarian): > 100 µM
- TGI (K-562 leukemia): > 100 µM
- TGI (HCT-15 colon): > 100 µM
- TGI (SK-MEL-5 melanoma): > 100 µM
- TGI (MDA-MB-435): > 100 µM
- TGI (MCF7 breast): > 100 µM
- TGI (786-0 renal): > 100 µM
- TGI (SR leukemia): > 100 µM
- TGI (A549 NSCLC): > 100 µM
- TGI (RXF 393 renal): > 100 µM
- TGI (HOP-92 NSCLC): > 100 µM
- TGI (OVCAR-5 ovarian): > 100 µM
- TGI (U251 CNS): > 100 µM
- TGI (MDA-N): > 100 µM
- TGI (HT29 colon): > 100 µM
- TGI (UO-31 renal): > 100 µM
- TGI (BT-549 breast): > 100 µM
- TGI (HCT-116 colon): > 100 µM
